{"source": "paper PMC6440464", "about": "(PeerJ, 2019)", "test": "Pharmacokinetics study after separate oral administration in rats (HPLC-MS of plasma)", "assay_type": "in vivo, Sprague-Dawley rats", "settings": "male, Sprague-Dawley, rat, plasma, 50 mg/kg; for Tmax / AUC(0-t) / CL/F / Cmax / MRT last / half-life: po, rat plasma; for Tmax: read-out: Tmax (converted); for CL/F: read-out: CLz/F; for Cmax: read-out: Cmax; for half-life: read-out: t1/2z", "procedure": "A total of 15 SPF Sprague-Dawley rats (SD, male, 190–210 g) were provided by Sino-British Sippr/BK Lab Animal Company Ltd. (Shanghai, China). The rats were kept in standard conditions (22–26 °C; 40–60% relative humidity; 12 h light/dark cycle). Throughout the rearing period, the animals had access to food and water ad libitum. Animal experiments were conducted in accordance with the standard ethical guidelines of the Laboratory Animal Management Committee of Jiangsu Province (SYXK (SU) 2016-0011).\nFollowing 1 week of adaptation, the rats were fasted for about 12 h before dosing, with free access to water. […] After administration of the first dose, blood samples were taken from the retro-orbital vein at 0, 5, 15, 30, 60, 90, 120, 180, 240, 360, 480, and 1,440 min and collected in heparinized tubes. The samples were centrifuged at 3,500 rpm for 10 min at 4 °C and the plasma was stored at −80 °C until analysis.\nAn Agilent 1,200 series HPLC system (Agilent Technologies, Waldbronn, Germany) equipped with a quaternary pump on-line degasser, auto-sampler and column oven, and an SL G1946D quadruple mass spectrometer (Agilent Technologies, Santa Clara, CA, USA) equipped with an electrospray ionization (ESI) source, were used for separation and detection. Data were acquired and analyzed using Agilent ChemStation Software Version A.01.00 (Agilent Technologies, Santa Clara, CA, USA).\nThe separation was carried out with an Amethyst C18-H column (150 × 4.6 mm, 5 μm, Sepax Technologies, Newark, DE, USA) with a guard column SB-C18 (10 × 4.6 mm, 5 μm, Phenomenex Technologies, Torrance, USA) at a constant temperature of 25 °C.\nThe mass spectra were acquired using ESI interfaced to a single quadrupole mass spectrometer. The ionization conditions were as follows: drying gas (N2) flow rate of 11 L/min, drying gas temperature of 350 °C, nebulizing gas (N2) pressure of 35 psi, capillary voltage of 3,500 V, quad temperature of 100 °C, and fragment voltage of 110 V. A series of m/z were monitored using a timed program according to the retention times and characteristic ions for the corresponding HPLC-MS peak obtained by scanning from m/z 100–1,000 in the standard sample.\nBriefly, an aliquot of plasma sample (100 μL) was spiked with 5% formic acid (10 μL) in centrifuge tube. Subsequently, hydrochloric acid (2 mol/L, 10 μL) and IS solution (960.00 ng/mL, 20 μL) were added. Then ethyl acetate/n-butyl alcohol (1:1 v/v; 1,000 μL) was used to extract the components. The samples were then homogenized by vortex mixing and centrifuged for 10 min at 14,000 rpm. After centrifugation, 800 μL of supernatant was transferred to another centrifuge tube and the sample was evaporated to dryness. The residues were dissolved in 100 μL of methanol and centrifuged for 10 min at 12,000 rpm. 50 μL of the supernatant was transferred to the vial and an aliquot of 5 μL was injected into the HPLC-MS system for analysis.\nDAS 2.0 (Chinese Pharmacological Association, Shanghai, China) was used to calculate the pharmacokinetic parameters using the non-compartment model, including the area under curve (AUC), mean residence time (MRT), half-life ( t1/2z), clearance rate (CL), maximum plasma concentration (Cmax), and time (Tmax). All results are expressed as mean ± standard deviation (SD). One way analysis of variance followed by […] was used for comparison of different groups using Graph pad prism 5 software. A p-value of <0.05 was considered statistically significant.", "key": {"[1]": {"settings": "IQ group (oral IQ 50 mg/kg), labelled substance = analyte, mean of 5 rats"}, "[2]": {"settings": "IQ group: oral IQ 50 mg/kg, mean ± SD, n = 5"}, "[3]": {"settings": "QG group (oral QG 50 mg/kg), labelled substance = analyte, mean of 5 rats"}, "[4]": {"settings": "QG group: oral QG 50 mg/kg, mean ± SD, n = 5"}, "[5]": {"settings": "Qr group (oral Qr 50 mg/kg), labelled substance = analyte, mean of 5 rats"}, "[6]": {"settings": "Qr group: oral Qr 50 mg/kg, mean ± SD, n = 5"}}, "note": "Where two headings read alike, the source gives them in different places.", "data": [{"smiles": "O=c1c(O)c(-c2ccc(O)c(O)c2)oc2cc(O)cc(O)c12", "note": "[Qr, Quercetin]", "values": [{"measurement": "concentration at 5 min", "setting": "oral, QG group (oral QG 50 mg/kg), 5 min, individual rats NO. 1-5, read-out: Plasma concentrations", "value": 0, "unit": "ng/mL"}, {"measurement": "concentration at 15 min", "setting": "oral, QG group (oral QG 50 mg/kg), 15 min, individual rats NO. 1-5, read-out: Plasma concentrations", "value": 0, "unit": "ng/mL"}, {"measurement": "concentration at 30 min", "setting": "oral, QG group (oral QG 50 mg/kg), 30 min, individual rats NO. 1-5, read-out: Plasma concentrations", "value": 0, "unit": "ng/mL"}, {"measurement": "concentration at 240 min", "setting": "oral, Qr group (oral Qr 50 mg/kg), 240 min, individual rats NO. 1-5, read-out: Plasma concentrations", "value": 2590, "unit": "ng/mL"}, {"measurement": "Tmax", "setting": "IQ group (oral IQ 50 mg/kg), labelled substance = analyte, individual rats No1-No5", "value": 0.5, "unit": "h"}, {"measurement": "AUC(0-t)", "setting": "IQ group (oral IQ 50 mg/kg), labelled substance = analyte, mean of 5 rats, read-out: AUC(0-t) (converted)", "value": 36900, "unit": "ng·h/mL"}, {"measurement": "CL/F", "setting": "[1]", "value": 24, "unit": "mL/min/kg"}, {"measurement": "Cmax", "setting": "[1]", "value": 6600, "unit": "ng/mL"}, {"measurement": "MRT last", "setting": "IQ group (oral IQ 50 mg/kg), labelled substance = analyte, mean of 5 rats, read-out: MRT(0-t) (converted)", "value": 7.04, "unit": "h"}, {"measurement": "Tmax", "setting": "[1]", "value": 0.7, "unit": "h"}, {"measurement": "half-life", "setting": "[1]", "value": 6.31, "unit": "h"}, {"measurement": "AUC(0-t)", "setting": "IQ group: oral IQ 50 mg/kg, mean ± SD, n = 5, read-out: AUC0−t (converted)", "value": 36900, "unit": "ng·h/mL"}, {"measurement": "Cmax", "setting": "[2]", "value": "6600 ± 2670", "unit": "ng/mL"}, {"measurement": "MRT last", "setting": "IQ group: oral IQ 50 mg/kg, mean ± SD, n = 5, read-out: MRT0−t (converted)", "value": 7.04, "unit": "h"}, {"measurement": "Tmax", "setting": "[2]", "value": 0.7, "unit": "h"}, {"measurement": "half-life", "setting": "[2]", "value": "6.31 ± 5.65", "unit": "h"}, {"measurement": "Tmax", "setting": "QG group (oral QG 50 mg/kg), labelled substance = analyte, individual rats No1-No5", "value": 4, "unit": "h"}, {"measurement": "AUC(0-t)", "setting": "QG group (oral QG 50 mg/kg), labelled substance = analyte, mean of 5 rats, read-out: AUC(0-t) (converted)", "value": 58400, "unit": "ng·h/mL"}, {"measurement": "CL/F", "setting": "[3]", "value": 14, "unit": "mL/min/kg"}, {"measurement": "Cmax", "setting": "[3]", "value": 5170, "unit": "ng/mL"}, {"measurement": "Tmax", "setting": "[3]", "value": 6, "unit": "h"}, {"measurement": "half-life", "setting": "[3]", "value": 6.09, "unit": "h"}, {"measurement": "AUC(0-t)", "setting": "QG group: oral QG 50 mg/kg, mean ± SD, n = 5, read-out: AUC0−t (converted)", "value": 58400, "unit": "ng·h/mL"}, {"measurement": "Cmax", "setting": "[4]", "value": "5170 ± 1850", "unit": "ng/mL"}, {"measurement": "Tmax", "setting": "[4]", "value": 6, "unit": "h"}, {"measurement": "half-life", "setting": "[4]", "value": "6.09 ± 2.53", "unit": "h"}, {"measurement": "MRT last", "setting": "Qr group (oral Qr 50 mg/kg), labelled substance = analyte, individual rats No1-No5, read-out: MRT(0-t) (converted)", "value": 6.33, "unit": "h"}, {"measurement": "half-life", "setting": "Qr group (oral Qr 50 mg/kg), labelled substance = analyte, individual rats No1-No5", "value": 7.67, "unit": "h"}, {"measurement": "AUC(0-t)", "setting": "Qr group (oral Qr 50 mg/kg), labelled substance = analyte, mean of 5 rats, read-out: AUC(0-t) (converted)", "value": 43200, "unit": "ng·h/mL"}, {"measurement": "CL/F", "setting": "[5]", "value": 20, "unit": "mL/min/kg"}, {"measurement": "Cmax", "setting": "[5]", "value": 7470, "unit": "ng/mL"}, {"measurement": "Tmax", "setting": "[5]", "value": 0.9, "unit": "h"}, {"measurement": "half-life", "setting": "[5]", "value": 7.29, "unit": "h"}, {"measurement": "AUC(0-t)", "setting": "Qr group: oral Qr 50 mg/kg, mean ± SD, n = 5, read-out: AUC0−t (converted)", "value": 43200, "unit": "ng·h/mL"}, {"measurement": "Cmax", "setting": "[6]", "value": "7470 ± 2630", "unit": "ng/mL"}, {"measurement": "Tmax", "setting": "[6]", "value": 0.9, "unit": "h"}, {"measurement": "half-life", "setting": "[6]", "value": "7.29 ± 0.905", "unit": "h"}]}]}
